According to ChEMBL document CHEMBL4229358, “Synthesis of novel 4-functionalized 1,5-diaryl-1,2,3-triazoles containing benzenesulfonamide moiety as carbonic anhydrase I, II, IV and IX inhibitors” (Eur J Med Chem, 2018):

Molecular target: Carbonic anhydrase 9 (Homo sapiens, UniProt Q16790)
Experiment: Inhibition of transmembrane human carbonic anhydrase 9 by stopped flow CO2 hydration assay

| SMILES | Ki [µM] |
| --- | --- |
| NS(=O)(=O)c1ccc(-n2nnc(C(=O)O)c2-c2ccc(Br)cc2)cc1 | 1.41 |
| NC(=O)c1nnn(-c2ccc(S(N)(=O)=O)cc2)c1-c1ccc(Br)cc1 | 0.256 |
| NS(=O)(=O)c1ccc(-n2nnc(C(=O)O)c2-c2ccc(Cl)cc2)cc1 | 0.716 |
| NNC(=O)c1nnn(-c2ccc(S(N)(=O)=O)cc2)c1-c1cccs1 | 2.83 |
| NC(=O)c1nnn(-c2ccc(S(N)(=O)=O)cc2)c1-c1ccc(Cl)cc1 | 0.117 |
| NS(=O)(=O)c1ccc(-n2nnc(CO)c2-c2ccccn2)cc1 | 0.0143 |
| NNC(=O)c1nnn(-c2ccc(S(N)(=O)=O)cc2)c1-c1ccccn1 | 2.9 |
| NS(=O)(=O)c1ccc(-n2nnc(C(=O)O)c2-c2ccc(F)cc2)cc1 | 1.58 |
| CCOC(=O)c1nnn(-c2ccc(S(N)(=O)=O)cc2)c1-c1ccccn1 | 1.42 |
| NC(=O)c1nnn(-c2ccc(S(N)(=O)=O)cc2)c1-c1ccccn1 | 0.73 |
| NNC(=O)c1nnn(-c2ccc(S(N)(=O)=O)cc2)c1-c1ccc(F)cc1 | 2.45 |
| NS(=O)(=O)c1ccc(-n2nnc(CO)c2-c2cccs2)cc1 | 0.0712 |
| NS(=O)(=O)c1ccc(-n2nnc(C(=O)O)c2-c2cccs2)cc1 | 1.31 |
| NS(=O)(=O)c1ccc(-n2nnc(C(=O)O)c2-c2ccccn2)cc1 | 2.09 |
| CCOC(=O)c1nnn(-c2ccc(S(N)(=O)=O)cc2)c1-c1ccc(F)cc1 | 0.633 |
| CCOC(=O)c1nnn(-c2ccc(S(N)(=O)=O)cc2)c1-c1cccs1 | 0.237 |
| NNC(=O)c1nnn(-c2ccc(S(N)(=O)=O)cc2)c1-c1ccc(Cl)cc1 | 0.909 |
| NNC(=O)c1nnn(-c2ccc(S(N)(=O)=O)cc2)c1-c1ccc(Br)cc1 | 1.35 |
| CCOC(=O)c1nnn(-c2ccc(S(N)(=O)=O)cc2)c1-c1ccc(Cl)cc1 | 1.48 |
| NC(=O)c1nnn(-c2ccc(S(N)(=O)=O)cc2)c1-c1cccs1 | 0.225 |
| NC(=O)c1nnn(-c2ccc(S(N)(=O)=O)cc2)c1-c1ccc(F)cc1 | 0.107 |

Now from value to molecule:

| Ki [µM] | SMILES |
| --- | --- |
| 0.738 | Cc1ccc(-c2c(C(=O)NN)nnn2-c2ccc(S(N)(=O)=O)cc2)cc1 |
| 0.228 | CCOC(=O)c1nnn(-c2ccc(S(N)(=O)=O)cc2)c1-c1ccc(Br)cc1 |
| 2.33 | Cc1ccc(-c2c(CO)nnn2-c2ccc(S(N)(=O)=O)cc2)cc1 |
| 1.21 | NS(=O)(=O)c1ccc(-n2nnc(CO)c2-c2ccc(Cl)cc2)cc1 |
| 0.073 | Cc1ccc(-c2c(C(N)=O)nnn2-c2ccc(S(N)(=O)=O)cc2)cc1 |
| 2.37 | NS(=O)(=O)c1ccc(-n2nnc(CO)c2-c2ccc(F)cc2)cc1 |
| 1.73 | NS(=O)(=O)c1ccc(-n2nnc(CO)c2-c2ccc(Br)cc2)cc1 |
| 0.198 | CCOC(=O)c1nnn(-c2ccc(S(N)(=O)=O)cc2)c1-c1ccc(C)cc1 |
| 1.41 | Cc1ccc(-c2c(C(=O)O)nnn2-c2ccc(S(N)(=O)=O)cc2)cc1 |
